target: T1, NAD-dependent protein deacetylase sirtuin-2 (Homo sapiens, UniProt Q8IXJ6); assay: Inhibition of human recombinant SIRT2
T1 sequence (Q8IXJ6 whole entry): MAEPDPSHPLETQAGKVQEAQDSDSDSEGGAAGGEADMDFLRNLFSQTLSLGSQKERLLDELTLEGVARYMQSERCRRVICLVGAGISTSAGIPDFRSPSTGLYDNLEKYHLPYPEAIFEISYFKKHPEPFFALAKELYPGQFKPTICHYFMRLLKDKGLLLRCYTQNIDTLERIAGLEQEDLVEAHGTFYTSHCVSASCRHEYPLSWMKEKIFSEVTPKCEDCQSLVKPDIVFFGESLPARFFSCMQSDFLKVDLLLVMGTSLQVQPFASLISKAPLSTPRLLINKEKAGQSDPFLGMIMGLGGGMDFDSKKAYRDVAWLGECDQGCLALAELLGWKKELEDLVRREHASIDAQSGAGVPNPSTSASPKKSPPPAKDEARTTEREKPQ

Row | Compound | IC50 [µM]
1 | CCCCC(CC)COCCCNC(=O)CCC(C)(c1ccc(O)cc1)c1ccc(O)cc1 (stereo not drawn) | 200
2 | CC1(C)CCC(C)(C)c2cc(-c3csc(C4CCN(Cc5ccc(N(CCC#N)CCC#N)cc5)CC4)n3)ccc21 | 136
3 | OCc1cccc(/C=N/c2cc(/N=C/c3cccc(CO)c3O)cc(C(F)(F)F)c2)c1O | 91

— ChEMBL document CHEMBL1137363, “Discovering inhibitors of human sirtuin type 2: novel structural scaffolds” (J Med Chem, 2006)
